Results from publication PMC12427763 (2025).

Key:
[1] = test system: 5'-biotin c-myb G4 (DNA, G4) GGAGGAGGAGGTCACGGAGGAGGAGGAGAAGGAGGAGGAGGA; assay: SPR; conditions: K+ 100 mM; 50 mM Tris-HCl pH 7.4, 5% DMSO
[2] = test system: c-myb G4 (5'-FAM) (DNA, G4) GGAGGAGGAGGTCACGGAGGAGGAGGAGAAGGAGGAGGAGGA; assay: MST; conditions: K+ 100 mM; 50 mM Tris-HCl pH 7.4
[3] = test system: c-myb IM (5'-FAM) (DNA, i motif) TCCTCCTCCTCCTTCTCCTCCTCCTCCGTGACCTCCTCCTCC; assay: MST; conditions: K+ 100 mM, 20 mM MES pH 5.5
[4] = test system: 5'-biotin c-myb IM (DNA, i motif) TCCTCCTCCTCCTTCTCCTCCTCCTCCGTGACCTCCTCCTCC; assay: SPR; conditions: K+ 100 mM; 20 mM MES pH 5.5, 5% DMSO
[5] = test system: c-Jun G4 (5'-FAM) (DNA, G4) AAGGGGGGAGGGGGAGGGGGTT; assay: MST; conditions: K+ 100 mM; 50 mM Tris-HCl pH 7.4
[6] = test system: c-myb G4 (DNA, G4) GGAGGAGGAGGTCACGGAGGAGGAGGAGAAGGAGGAGGAGGA; assay: TO displacement, fluorescence; conditions: K+ 100 mM; 50 mM Tris-HCl pH 7.4; tracer thiazole orange 2 μM
[7] = test system: Kras IM (5'-FAM) (DNA, i motif) CCTCCCCCTCTTCCCTCTTCCCACACCGCCCT; assay: MST; conditions: K+ 100 mM; 20 mM MES pH 5.5
[8] = test system: Kras G4 (5'-FAM) (DNA, G4) AGGGCGGTGTGGGAAGAGGGAAGAGGGGGAGG; assay: MST; conditions: K+ 100 mM; 50 mM Tris-HCl pH 7.4
[9] = test system: c-myb IM (DNA, i motif) TCCTCCTCCTCCTTCTCCTCCTCCTCCGTGACCTCCTCCTCC; assay: TO displacement, fluorescence; conditions: K+ 100 mM plus potassium phosphate; BPES pH 5.5, 1 mM EDTA; tracer thiazole orange 2 μM
[10] = test system: Hras G4 (DNA, G4) TTGAGGGTGGGTAGGGTGGGTAAA; assay: SPR; conditions: K+ 100 mM; 50 mM Tris-HCl pH 7.4, 5% DMSO
[11] = test system: c-Jun IM (5'-FAM) (DNA, i motif) TAACCCCCTCCCCCTCCCCCCTTTAAT; assay: MST; conditions: K+ 100 mM; 20 mM MES pH 5.5
[12] = test system: c-Jun G4 (DNA, G4) AAGGGGGGAGGGGGAGGGGGTT; assay: SPR; conditions: K+ 100 mM; 50 mM Tris-HCl pH 7.4, 5% DMSO
[13] = test system: HIF-1α IM (5'-FAM) (DNA, i motif) GCCCGAGCGCGCCTCCGCCCTTGCCCGCCCCCTG; assay: MST; conditions: K+ 100 mM; 20 mM MES pH 5.5
[14] = test system: Kras G4 (DNA, G4) AGGGCGGTGTGGGAAGAGGGAAGAGGGGGAGG; assay: SPR; conditions: K+ 100 mM; 50 mM Tris-HCl pH 7.4, 5% DMSO
[15] = test system: Rb IM (DNA, i motif) GCCGCCCAAAACCCCCCG; assay: SPR; conditions: K+ 100 mM; 20 mM MES pH 5.5, 5% DMSO
[16] = test system: c-Jun IM (DNA, i motif) TAACCCCCTCCCCCTCCCCCCTTTAAT; assay: SPR; conditions: K+ 100 mM; 20 mM MES pH 5.5, 5% DMSO
[17] = test system: Bcl-2 IM (DNA, i motif) CAGCCCCGCTCCCGCCCCCTTCCTCCCGCGCCCGCCCCT; assay: SPR; conditions: K+ 100 mM; 20 mM MES pH 5.5, 5% DMSO
[18] = test system: Ret IM (DNA, i motif) CCCCGCCCCGCCCCGCCCCTA; assay: SPR; conditions: K+ 100 mM; 20 mM MES pH 5.5, 5% DMSO
[19] = test system: Rb IM (5'-FAM) (DNA, i motif) GCCGCCCAAAACCCCCCG; assay: MST; conditions: K+ 100 mM; 20 mM MES pH 5.5
[20] = test system: Bcl-2 G4 (DNA, G4) GGGCGGGCGCGGGAGGAAGGGGGCGGG; assay: SPR; conditions: K+ 100 mM; 50 mM Tris-HCl pH 7.4, 5% DMSO
[21] = test system: Ret IM (5'-FAM) (DNA, i motif) CCCCGCCCCGCCCCGCCCCTA; assay: MST; conditions: K+ 100 mM; 20 mM MES pH 5.5

Compound `O=C1c2cccc3c(-n4cc(-c5ccc6c(c5)c5ccccc5n6CCN5CCCC5)nn4)ccc(c23)C(=O)N1CCN1CCCC1` has a KD [1] of 5.15 µM, a KD [2] of 8.53 ± 3.22 µM and a KD [3] of 2.11 ± 0.71 µM. The KD [4] was 3.34 µM.

`O=C1c2cccc3cc(-c4ccc5c(c4)c4cc(-c6cn(CCN7CCCC7)nn6)ccc4n5CCN4CCCC4)cc(c23)C(=O)N1CCN1CCCC1` showed a KD [1] of 1.10 µM, a KD [5] of over 50 µM and a KD [2] of 1.43 ± 0.64 µM. For the same compound, the DC50 [6] was 1.0 µM, the KD [7] was 20.59 µM and the KD [8] was 19.90 µM. For the same compound, the DC50 [9] was 0.8 µM, the KD [10] was 29.10 µM and the KD [11] was 34.42 µM. The KD [12] was 32.90 µM, the KD [13] was 14.19 µM and the KD [14] was 27.50 µM. For the same compound, the KD [15] was 7.70 µM, the KD [16] was 18.70 µM and the KD [17] was 18.50 µM. For the same compound, the KD [18] was 7.71 µM, the KD [19] was 20.93 µM and the KD [3] was 1.04 ± 0.40 µM. The KD [4] was 0.58 µM, the KD [20] was 23.60 µM and the KD [21] was 18.00 µM.

`O=C1c2cccc3cc(-c4ccc5c(c4)c4ccccc4n5CCN4CCCC4)cc(c23)C(=O)N1CCN1CCCC1` was tested, and the KD [1] was 3.03 µM, the KD [2] was 1.11 ± 0.52 µM and the KD ([3]; supplement prints 10.39 ± 2.67) was 10.06 ± 2.67 µM. It also gave a KD [4] of 12.90 µM.
